Source: US20100168170A1, “Piperidinones Useful in the Treatment of Inflammation” (priority 2007, published 2010)

Assays:
[1] = biological target: PDE4 enzyme (U937 lysate or recombinant hPDE4); test: In vitro inhibition of PDE4 phosphodiesterases ([3H]cAMP SPA enzyme assay, Method A); type: biochemical, human; conditions: Biological Example 1, Method A
Protocol: PDE4 U937 cytoplasmic extracts were prepared by a modified procedure of the assay described in MacKenzie, S. J. and Houslay, M. D., “Action of rolipram on specific PDE4 cAMP phosphodiesterase isoforms and on the phosphorylation of cAMP-response-element-binding protein (CREB) and p38 mitogen-activated protein (MAP) kinase in U937 monocytic cells”, Biochem J. (2000), 347(Pt 2):571-8, by lysis of U937 cells (ATCC: Catalogue No. CRL-159) in M-PER Lysis buffer (Pierce) containing 10% protease inhibitor cocktail (Sigma). The cell lysates were then centrifuged at 30,000 rpm for 15 minutes at 4° C. The supernatants were aliquoted and stored at −80° C.
An alternative source of PDE4 enzymes was from recombinant human PDE4 obtained from baculovirus-SF9 cells expression system. cDNA containing PDE4D1 was cloned into a baculovirus vector, insect cells (SF9) were then infected and cells cultured to express the PDE4 protein. The cells were lysed and used directly in assay or partially purified using standard procedures. The process can be used for other PDE4 and PDE enzymes.
Compounds of the invention were evaluated for inhibitory activity against PDE4 enzymes by the following assay Method A or B.
PDE4 assay based on modified procedure of Phosphodiesterase [^3H]cAMP SPA Enzyme Assay (Amersham Biosciences, code TRKQ 7090). In this assay, PDE4 enzymes converts [^3H]cAMP to [^3H]5′-AMP. The assay is quenched by the addition of SPA yttrium silicate beads which preferentially bind linear nucleotides over cyclic nucleotides in the presence of zinc sulphate.
Reactions were performed in duplicate by the addition of 10 μl PDE4 enzyme (U937 lysate or recombinant hPDE4) to 20 μL of assay mix and 20 μL of test compounds in Isoplates (Wallac) for 30 minutes, at 37° C. The final assay mixture contained: 50 mM Tris (pH 7.5), 8.3 mM MgCl2, 1.7 mM EGTA and [^3H]cAMP (0.025 μCi) (Amersham). Assay was terminated by addition 25 μL SPA beads. The plate was sealed, shaken for 1 minute and then allowed to settle 30 minutes and the cpm determined using a Wallac Micobeta.
PDE4 enzyme was added in quantities such that less than 15% of substrate was consumed (linear assay conditions).

human platelet PDE3 = biological target: T1, human platelet PDE3 (Homo sapiens, UniProt Q14432); test: In vitro inhibition of PDE3 phosphodiesterases (platelet extract, [3H]cAMP SPA); type: biochemical; conditions: cAMP as substrate
T1 construct: tissue AllCells, LLC PB027; host or cells: human platelets, 70,000 g supernatant of sonicated lysate
Protocol: Compounds of the invention were evaluated for inhibitory activity against human platelet PDE3 to ascertain PDE3 inhibition. The PDE3 assay was performed using platelet cell extract as described above in Biological Example 1 for the PDE4 assay. Platelets are known contain PDE's 2, 3 and 5. However […] utilize cGMP, so in an assay with cAMP as a substrate they are not detected.
Human platelet cytoplasmic extracts were prepared by modified method of Keller et al. Human platelets (AllCells, LLC; Cat. No. PB027) were sonicated in supplemented lysis buffer. Supplemented lysis buffer consisted of 20 mM Tris, 1 mM EDTA, 1 mM DTT, 0.25 M sucrose, 1 mM benzamidine, 1 μg/mL Leupeptin, 1 μM Pepstatin, and 0.1 mM PMSF, pH 7.5. The platelet lysates were centrifuged at 70,000 g for 30 minutes at 4° C. The supernatants were aliquoted and stored at −80° C.
Reactions were performed in duplicate by the addition of 10 μL PDE3 lysate to 20 μL of assay mix and 20 μL of test compounds in Isoplates (Wallac) for 30 minutes, at 37° C. […] The plate was sealed, shaken for 1 minute and then allowed to settle 30 minutes and the cpm determined using a Wallac Micobeta.
PDE3 enzyme was added in quantities such that less than 15% of substrate was consumed (linear assay conditions).

T1 sequence (Q14432 whole entry): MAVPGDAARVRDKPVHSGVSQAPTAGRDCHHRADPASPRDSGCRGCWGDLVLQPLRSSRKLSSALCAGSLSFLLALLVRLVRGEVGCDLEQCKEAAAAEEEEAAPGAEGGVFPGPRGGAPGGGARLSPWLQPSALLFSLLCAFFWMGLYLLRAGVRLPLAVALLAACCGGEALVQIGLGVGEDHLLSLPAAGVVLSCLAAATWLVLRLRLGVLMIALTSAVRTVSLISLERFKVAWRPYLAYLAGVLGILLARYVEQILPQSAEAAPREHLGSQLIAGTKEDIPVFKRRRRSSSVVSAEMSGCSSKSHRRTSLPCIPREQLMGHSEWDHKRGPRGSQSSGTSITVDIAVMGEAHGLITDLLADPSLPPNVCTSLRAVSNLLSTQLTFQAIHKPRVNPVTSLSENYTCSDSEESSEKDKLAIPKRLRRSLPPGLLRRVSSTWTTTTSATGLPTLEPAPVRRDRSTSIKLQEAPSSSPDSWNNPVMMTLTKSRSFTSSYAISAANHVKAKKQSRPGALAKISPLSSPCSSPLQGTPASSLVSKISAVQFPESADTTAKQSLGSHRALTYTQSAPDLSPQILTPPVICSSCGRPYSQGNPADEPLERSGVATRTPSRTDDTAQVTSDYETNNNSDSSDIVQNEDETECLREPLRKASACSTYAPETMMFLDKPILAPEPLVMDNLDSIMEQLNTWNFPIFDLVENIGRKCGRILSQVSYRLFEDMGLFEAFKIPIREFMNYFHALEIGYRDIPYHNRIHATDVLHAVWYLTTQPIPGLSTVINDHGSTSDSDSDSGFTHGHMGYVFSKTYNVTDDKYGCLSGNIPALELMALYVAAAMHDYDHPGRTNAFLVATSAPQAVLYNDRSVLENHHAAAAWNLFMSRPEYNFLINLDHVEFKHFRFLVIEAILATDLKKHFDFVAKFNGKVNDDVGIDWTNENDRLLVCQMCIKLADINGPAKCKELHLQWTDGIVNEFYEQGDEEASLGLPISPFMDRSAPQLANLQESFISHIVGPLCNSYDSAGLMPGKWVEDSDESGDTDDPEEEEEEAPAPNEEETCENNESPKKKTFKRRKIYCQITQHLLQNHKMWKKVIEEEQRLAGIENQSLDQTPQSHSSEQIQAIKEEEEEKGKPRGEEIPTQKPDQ

Row | Structure (SMILES) | IC50 [1] | inhibition of PDE3 (assay specificity control) (human platelet PDE3)
1 | COc1cc2c(cc1OC)-c1c/c(=N\c3c(C)cc(C)cc3C)n(C)c(=O)n1CC2 [trequinsin] |  | potent inhibitor
2 | COc1ccc(C2CNC(=O)C2)cc1OC1CCCC1 (stereo not drawn) [rolipram] |  | without effect
3 | COc1ccc([C@H]2CNC(=O)[C@H](Cc3ccc(Oc4ccccc4)cc3)C2)cc1OC1CCCC1 [(3S,5S)-5-(3-(cyclopentyloxy)-4-methoxyphenyl)-3-(4-phenoxybenzyl)piperidin-2-one] | 457 nM | 
4 | COc1cc(CC2C[C@@H](c3ccc(OC)c(OC4CCCC4)c3)CNC2=O)ccc1OC1CCCC1 (stereo partly drawn) [(5S)-3-(4-(cyclopentyloxy)-3-methoxybenzyl)-5-(3-(cyclopentyloxy)-4-methoxyphenyl)piperidin-2-one] | 379 nM | 
5 | COc1ccc([C@H]2CNC(=O)[C@H](Cc3ccc(F)c(F)c3)C2)cc1OC1CCCC1 [(3S,5S)-5-(3-(cyclopentyloxy)-4-methoxyphenyl)-3-(3,4-difluorobenzyl)piperidin-2-one] | 101 nM | 
6 | COc1ccc([C@H]2CNC(=O)[C@H](CCCCCc3ccccc3)C2)cc1OC1CCCC1 [(3R,5S)-5-(3-(cyclopentyloxy)-4-methoxyphenyl)-3-(5-phenylpentyl)piperidin-2-one] | 578 nM | 
7 | COc1cc(CC2C[C@@H](c3ccc(OC)c(-c4ccccc4)c3)CNC2=O)ccc1OC1CCCC1 (stereo partly drawn) [(5S)-3-(4-(cyclopentyloxy)-3-methoxybenzyl)-5-(6-methoxybiphenyl-3-yl)piperidin-2-one] | 519 nM | 
8 | CCOc1cc([C@H]2CNC(=O)C(Cc3ccc(F)cc3)(Cc3ccc(F)cc3)C2)ccc1OC [(S)-5-(3-ethoxy-4-methoxyphenyl)-3,3-bis(4-fluorobenzyl)piperidin-2-one] | 5080 nM | 
9 | COc1ccc([C@H]2CNC(=O)C(C(C)c3ccccc3)C2)cc1OC1CCCC1 (stereo partly drawn) [(5S)-5-(3-(cyclopentyloxy)-4-methoxyphenyl)-3-(1-phenylethyl)piperidin-2-one] | 1040 nM | 
10 | COc1ccc([C@H]2CNC(=O)[C@@H](Cc3cccc(OCc4ccccc4)c3)C2)cc1OC1CCCC1 [(3R,5S)-3-(3-(benzyloxy)benzyl)-5-(3-(cyclopentyloxy)-4-methoxyphenyl)piperidin-2-one] | 189 nM | 

More lines, in order of falling IC50 [1], values ahead:

Row | IC50 [1] | inhibition of PDE3 (assay specificity control) (human platelet PDE3) | Structure (SMILES)
11 | 6780 nM |  | COc1ccc([C@@H]2C[C@H](Cc3cccc(C)c3)C(=O)N(CC(C)C)C2)cc1OC1CCCC1 [(3R,5S)-5-(3-(cyclopentyloxy)-4-methoxyphenyl)-1-isobutyl-3-(3-methylbenzyl)-piperidin-2-one]
12 | 1340 nM |  | COc1ccc([C@H]2CNC(=O)[C@@H](Cc3ccc(OCC(N)=O)cc3)C2)cc1OC1CCCC1 [2-(4-(((3R,5S)-5-(3-(cyclopentyloxy)-4-methoxyphenyl)-2-oxopiperidin-3-yl)methyl)phenoxy)acetamide]
13 | 1280 nM |  | CCCCCCCOc1cc([C@H]2CNC(=O)C(Cc3ccccc3)C2)ccc1OC (stereo partly drawn) [(5S)-3-benzyl-5-(3-(heptyloxy)-4-methoxyphenyl)piperidin-2-one]
14 | 1100 nM |  | COc1ccc([C@@H]2C[C@H](Cc3cccc(C)c3)C(=O)N(C(C)=O)C2)cc1OC1CCCC1 [(3R,5S)-1-acetyl-5-(3-(cyclopentyloxy)-4-methoxyphenyl)-3-(3-methylbenzyl)piperidin-2-one]
15 | 604 nM |  | CCCNc1cccc(C[C@@H]2C[C@@H](c3ccc(OC)c(OC4CCCC4)c3)CNC2=O)c1 [(3S,5S)-5-(3-(cyclopentyloxy)-4-methoxyphenyl)-3-(3-(propylamino)benzyl)-piperidin-2-one]
